Test results taken from paper PMC11778240, “Synthesis and preclinical evaluation of tigilanol tiglate analogs as latency-reversing agents for the eradication of HIV” (Science Advances, 2025).

Assays:
PKC-δ fused to GFP = biological target: T1, PKC-δ fused to GFP (Homo sapiens, UniProt Q05655); assay: PKC-GFP translocation assay in CHO-K1 cells (confocal microscopy); type: cell-based; conditions: 1500 nM, within 10 min
T1 construct: host or cells: CHO-K1
From the text: (§1) Using confocal microscopy, this assay allows us to visualize, in real time, cell permeation and the ligand-induced translocation of specific PKC isoforms from the cytosol to the membranes of the cell—the hallmark of PKC activation ([29], [68]). […] In alignment with past studies on the activation of PKC in CHO-K1 cells ([22], [65], [69]), we observed strong plasma membrane translocation of PKC-β (Fig. 7C).
(§2) Agar stabs of DH5-alpha (high copy) bacterial cells, containing plasmids for expression of mammalian PKC-δ (Plasmid #: 178856) and PKC-β (Plasmid #: #112265) fused to EGFP under constitutive mammalian promoters CAG and CMV, respectively, were purchased from Addgene.
(§3) Upon receipt, these stabs were incubated at 37 °C in 5% CO2 for 24 hours to allow sufficient bacterial growth. Following incubation, a sterile pipette tip was utilized to streak bacteria onto LB agar plates that are positive for the respective antibiotic that selects for each plasmid. For bacteria containing Plasmid #: 178856, bacteria were streaked onto CellPro™ LB (Lennox) + Ampicillin 100 μg/ml while bacteria containing Plasmid #: 112265 was streaked onto CellPro™ LB (Miller) + Kanamycin 50 μg/ml and incubated for 24 hours at 37 °C in 5% CO2 in order to isolate single colonies of bacteria. Single, isolated bacterial colonies were selected utilizing a sterile pipette tip and placed in polypropylene culture tubes with vented stoppers containing 2mL of LB Broth Miller (Catalog No. BP1426-500) and the respective antibiotic for each plasmid at the recommended concentration of 100 μg/ml for ampicillin and 50 μg/ml for kanamycin. Following inoculation, these liquid cultures were placed on a shaker at 37 °C at 225rpm for 24 hours. The next day, the plasmids were sequestered and purified from the bacteria utilizing the Thermo Scientific™ GeneJET Plasmid Miniprep Kit (Catalog No. K0502).
(§4) PKC-β/PKC-δ plasmid purification
(§5) To sequester and purify plasmid from each culture tube, bacteria was resuspended in culture and transferred to sterile 1.7mL microcentrifuge tubes with 1 mL of bacteria placed into each tube. To harvest the bacteria, microcentrifuge tubes were placed in a microcentrifuge and spun at 8000 rpm for 2 minutes at room temperature. Note that all subsequent centrifugations were performed in a tabletop microcentrifuge at room temperature. Following centrifugation, the supernatant was decanted and 250 μL of Resuspension solution was added to the pelleted cells and vortexed.
(§6) Afterwards, 250 μL of Lysis Solution was added to the resuspended bacterial cells and tubes were inverted 4-6 times and allowed to incubate for no more than 5 minutes to avoid denaturation of the plasmid DNA. After lysing the bacterial cells, 350 μL of Neutralization Solution was immediately added and tubes were inverted 4-6 times. Tubes were then centrifugated for 5 minutes at 14,000 rpm to pellet the cell debris and chromosomal DNA. The supernatant was then carefully aspirated using a pipette, taking care not to distribute the white precipitate of cell and DNA debris and transferred to the GeneJET spin columns, provided in the GeneJET Miniprep Kit. The spin columns were subsequently centrifugated for 1 minute, the flow-through was discarded, and the column was placed back into the same collection tube. 500 μL of Wash Solution, diluted with 96% ethanol, was added to the column, and the column was centrifugated for 1 minute at 14,000 rpm.
(§7) The flow-through was discarded and the column was placed back into the same collection tube.
(§8) This wash process was repeated a second time, after which the spin columns were centrifugated for an additional 1 minute to ensure all residual Wash solution was removed from the plasmids.
(§9) The GeneJET spin columns were then transferred to new 1.7mL microcentrifuge tubes, and 50 μL of Elution Buffer was added to the center of the spin column to allow optimal elution of the plasmid
(§10) DNA. Before centrifugating for 2 minutes, the columns were allowed to incubate for 2 minutes at […]
(§11) room temperature. […]

PKC-β fused to GFP = biological target: T2, PKC-β fused to GFP (Homo sapiens, UniProt P05771); assay: as above; type: cell-based; conditions: 500 nM, within 10 min
T2 construct: host or cells: CHO-K1
From the text: as §1, §2, §3, §4, §5, §6, §7, §8, §9, §10, §11

J-Lat clone 10.6 cells = assay: J-Lat HIV latency reversal assay (GFP expression); type: cell-based, Human; conditions: J-Lat 10.6, 48 hours; for HIV latency reversal in words: ascending concentrations
From the text: Having shown that our lead compounds bind cell-free PKC isoforms, enter cells, translocate PKC-GFP fusion proteins, and activate NF-κB transcription factors, we next set out to determine whether our analogs were capable of reversing HIV from latency. We performed in vitro assays using T lymphocyte J-Lat clone 10.6, which contains a latent near full-length replication-incompetent integrated HIV DNA genome ([72]). J-Lat 10.6 lacks two viral genes, env and nef, which encode for the envelope protein and an accessory protein, respectively, and thus cannot initiate a spreading HIV infection. The integrated HIV provirus also encodes a GFP reporter gene, allowing latency reversal to be measured by quantification of GFP expression (fig. S1). […] In this latency reversal assay, we quantified GFP expression 48 hours after compound addition and observed bryostatin 1 to be maximally effective at concentrations of 40 nM or higher with latency reversal in 12% of cells (Fig. 8). Given the efficacy of bryostatin 1 as an LRA ([73], [74]), EBC-46 and many of its analogs tested in this J-Lat assay induced latency reversal in >90% of cells. […] SUW427, an esterase-releasable prodrug of EBC-46, also performed similarly to EBC-46 with a maximum efficacy of latency reversal in >90% of cells at a dose of 250 nM. […] The gradual release of EBC-46 from its prodrug form provides an alternative mode of administration that avoids the bolus effect associated with rapid drug administration ([17]). […] This is consistent with its lack of activity in the NF-κB activation assay and its design as a negative control as it is structurally similar to EBC-46 but unable to bind to the C1 domain of PKC at the concentrations used in this assay as it lacks a complete pharmacophore.
HIV latency reversal in-vitro assay
Human T Lymphocyte J-Lat Full Length Cell Line 10.6 (cat #9849) was obtained through the NIH HIV Reagent Program, Division of AIDS, NIAID, NIH and was contributed to the NIH HIV Reagent Program by Dr. Eric Verdin (70). J-Lat 10.6 cells were plated at 5 × 10^5 cells in 180 μL of RF10 media consisting of RPMI media supplemented with 1% Penicillin/Streptomycin and 10% Fetal Bovine Serum (FBS) in 96 -well U -bottom plates. J -Lat 10.6 cells were then stimulated for 48 hr by adding 20 μL of newly designed and synthesized tigilanol tiglate analogs, PKC modulators (bryostatin 1) as our positive control or med ia only (mock) as our negative control. Our negative control was RF10 media as the tigilanol tiglate analogs were freshly diluted with RF10 prior to plating. The final volume was 200 μL per well. Experiments were performed in three independent biological replicates, each completed in technical duplicates (n = 6). After 48 hr stimulation, 96 - well U -bottom plates were centrifuged at 296 RCF for 7 minutes to pellet cells, which were resusp ended in 200 μL of freshly prepared 2% paraformaldehyde (PFA) in PBS. GF P expression was measured 24 -hours post -fixation using the FITC channel on a LSR Fortessa (BD Biosciences) flow cytometer. Data analysis was conducted with FlowJo software version 10.8.1.

T2 sequence (P05771 whole entry, the tested form may be a part): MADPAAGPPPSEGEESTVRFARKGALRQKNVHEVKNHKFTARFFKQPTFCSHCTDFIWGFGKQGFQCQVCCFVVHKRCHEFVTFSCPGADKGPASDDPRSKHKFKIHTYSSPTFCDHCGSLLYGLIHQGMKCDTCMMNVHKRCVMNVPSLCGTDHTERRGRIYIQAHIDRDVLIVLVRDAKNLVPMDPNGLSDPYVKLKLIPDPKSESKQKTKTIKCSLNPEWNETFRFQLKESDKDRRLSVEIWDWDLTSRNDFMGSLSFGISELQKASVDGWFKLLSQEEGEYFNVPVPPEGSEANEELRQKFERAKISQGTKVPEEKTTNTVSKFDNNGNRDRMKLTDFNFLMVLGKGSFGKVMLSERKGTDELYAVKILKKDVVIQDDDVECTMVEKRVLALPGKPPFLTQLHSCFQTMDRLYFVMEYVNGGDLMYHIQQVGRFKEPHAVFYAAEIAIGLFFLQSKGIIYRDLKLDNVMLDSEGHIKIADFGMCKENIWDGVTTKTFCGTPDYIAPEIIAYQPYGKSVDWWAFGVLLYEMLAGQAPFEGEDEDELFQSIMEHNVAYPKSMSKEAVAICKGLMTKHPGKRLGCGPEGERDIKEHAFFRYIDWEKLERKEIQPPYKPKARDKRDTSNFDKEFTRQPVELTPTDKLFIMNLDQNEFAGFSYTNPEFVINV
T1 sequence (Q05655 whole entry, the tested form may be a part): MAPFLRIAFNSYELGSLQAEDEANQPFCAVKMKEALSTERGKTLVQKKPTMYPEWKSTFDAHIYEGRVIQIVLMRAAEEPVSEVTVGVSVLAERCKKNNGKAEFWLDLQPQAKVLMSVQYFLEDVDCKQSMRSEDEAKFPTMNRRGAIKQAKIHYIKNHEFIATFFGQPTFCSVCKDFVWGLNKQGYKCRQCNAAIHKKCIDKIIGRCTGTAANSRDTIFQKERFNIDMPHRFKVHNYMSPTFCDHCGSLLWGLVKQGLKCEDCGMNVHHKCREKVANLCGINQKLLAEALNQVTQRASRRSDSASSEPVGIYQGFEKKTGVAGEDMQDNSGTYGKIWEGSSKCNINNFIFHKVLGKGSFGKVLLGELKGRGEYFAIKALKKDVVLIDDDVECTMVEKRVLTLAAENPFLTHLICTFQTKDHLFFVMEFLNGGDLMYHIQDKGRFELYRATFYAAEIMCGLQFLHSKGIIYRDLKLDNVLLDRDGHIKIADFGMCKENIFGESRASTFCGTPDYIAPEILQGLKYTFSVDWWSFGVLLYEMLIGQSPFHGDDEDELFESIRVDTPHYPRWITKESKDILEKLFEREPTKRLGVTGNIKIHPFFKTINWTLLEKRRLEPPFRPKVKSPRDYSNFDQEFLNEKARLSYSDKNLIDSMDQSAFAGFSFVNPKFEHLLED

| Compound | HIV latency reversal in words (J-Lat clone 10.6 cells) | other results |
| --- | --- | --- |
| C/C=C(\C)C(=O)O[C@@H]1[C@@H](C)[C@@]2(O)[C@H]([C@@H]3C(C)(C)[C@]13OC(=O)[C@@H](C)CC)[C@@H]1O[C@]1(CO)[C@@H](O)[C@]1(O)C(=O)C(C)=C[C@H]12 [EBC-46, Tigilanol tiglate] |  | translocation of PKC-δ-GFP in words (PKC-δ fused to GFP): selectively induced perinuclear translocation of PKC-δ; translocation of PKC-β-GFP in words (PKC-β fused to GFP): effectively translocate PKC-β at 500 nM |
| C/C=C(\C)C(=O)O[C@@H]1[C@@H](C)[C@]2(O)[C@@H]3C=C(C)C(=O)[C@@]3(O)[C@H](O)C(CO)=C[C@H]2[C@@H]2C(C)(C)[C@]12OC(=O)[C@@H](C)CC [SUW400] |  | maximal latency reversal, % of cells (J-Lat clone 10.6 cells; 250 nM): > 90 % of cells |
| CC=C(C)C(=O)OC1C(C)C2(O)C(C3OC3(CO)CC3(O)C(=O)C(C)=CC32)C2C(C)(C)C12OC(=O)C(C)CC (stereo not drawn) [SUW403] | required a higher dose than EBC-46 before we detected reversal activity |  |
| C/C=C(\C)C(=O)O[C@@H]1[C@@H](C)[C@@]2(O)[C@H]([C@@H]3C(C)(C)[C@]13OC(=O)C1CCC1)[C@@H]1O[C@]1(CO)[C@@H](O)[C@]1(O)C(=O)C(C)=C[C@H]12 [SUW406] | required a higher dose than EBC-46 before we detected reversal activity |  |
| C/C=C(\C)C(=O)O[C@@H]1[C@@H](C)[C@@]2(O)[C@H]([C@@H]3C(C)(C)[C@]13OC(=O)[C@H](C)CC)[C@@H]1O[C@]1(CO)[C@@H](O)[C@]1(O)C(=O)C(C)=C[C@H]12 [SUW407] | required a higher dose than EBC-46 before we detected reversal activity |  |
| CC[C@H](C)C(=O)O[C@@]12[C@H](OC(=O)C3(C)CC3)[C@@H](C)[C@@]3(O)[C@H]([C@@H]1C2(C)C)[C@@H]1O[C@]1(CO)[C@@H](O)[C@]1(O)C(=O)C(C)=C[C@H]13 [SUW413] | required a higher dose than EBC-46 before we detected reversal activity |  |
| C/C=C(\C)C(=O)O[C@@H]1[C@@H](C)[C@]2(O)[C@@H]3C=C(C)[C@H](OC(=O)c4ccccc4)[C@@]3(O)[C@H](O)C(CO)=C[C@H]2[C@@H]2C(C)(C)[C@]12OC(=O)[C@@H](C)CC [SUW422] | required a higher dose than EBC-46 before we detected reversal activity |  |
| C/C=C(\C)C(=O)O[C@@H]1[C@@H](C)[C@]2(O)[C@@H]3C=C(C)[C@H](OC(=O)C=C(C)C)[C@@]3(O)[C@H](O)C(CO)=C[C@H]2[C@@H]2C(C)(C)[C@]12OC(=O)[C@@H](C)CC [SUW425] | required a higher dose than EBC-46 before we detected reversal activity |  |
| CC=C(C)C(=O)OC1C(C)C2(O)C(C3OC3(COC)C(O)C3(O)C(=O)C(C)=CC32)C2C(C)(C)C12OC(=O)C(C)CC (stereo not drawn) [SUW426] | did not produce latency reversal at any tested concentration |  |
| C/C=C(\C)C(=O)O[C@@H]1[C@@H](C)[C@@]2(O)[C@H]([C@@H]3C(C)(C)[C@]13OC(=O)c1ccccc1)[C@@H]1O[C@]1(CO)[C@@H](O)[C@]1(O)C(=O)C(C)=C[C@H]12 [SUW428] | required a higher dose than EBC-46 before we detected reversal activity |  |
| CC[C@H](C)C(=O)O[C@@]12[C@H](OC(C)(C)C)[C@@H](C)[C@@]3(O)[C@H]([C@@H]1C2(C)C)[C@@H]1O[C@]1(CO)[C@@H](O)[C@]1(O)C(=O)C(C)=C[C@H]13 [SUW430] | required a higher dose than EBC-46 before we detected reversal activity | translocation of PKC-δ-GFP in words (PKC-δ fused to GFP): selectively induced perinuclear translocation of PKC-δ; translocation of PKC-β-GFP in words (PKC-β fused to GFP): effectively translocate PKC-β at 500 nM |
| C/C=C(\C)C(=O)O[C@@H]1[C@@H](C)[C@@]2(O)[C@H]([C@@H]3C(C)(C)[C@]13OC(=O)Cc1cccc3ccccc13)[C@@H]1O[C@]1(CO)[C@@H](O)[C@]1(O)C(=O)C(C)=C[C@H]12 [SUW431] | effectively activates latent HIV at substantially lower concentrations than EBC-46 | latency reversal, % of cells (J-Lat clone 10.6 cells; 40 nM): 90 % of cells; translocation of PKC-δ-GFP in words (PKC-δ fused to GFP): strong perinuclear and plasma membrane translocation of PKC-δ; translocation of PKC-β-GFP in words (PKC-β fused to GFP): effectively translocate PKC-β at 500 nM |
